From patent US20240228459A1 (Boundless Bio, Inc., priority 2022, published 2024) come the findings set out here.

The target of one assay is PLK1 (Homo sapiens, UniProt P53350). Briefly: PLK1 activity (known assay). Type of assay: biochemical. As for the experimental part: (§1) The Wee1 pCDK1 and PLK1 activities were determined using known assays.
The target in a further assay is Wee1 (Homo sapiens, UniProt P30291). Kind of assay: Wee1 pCDK1 activity (known assay). Type of assay: cell-based. As for the experimental part: as §1
Wee1, sequence (P30291 whole entry, species assumed): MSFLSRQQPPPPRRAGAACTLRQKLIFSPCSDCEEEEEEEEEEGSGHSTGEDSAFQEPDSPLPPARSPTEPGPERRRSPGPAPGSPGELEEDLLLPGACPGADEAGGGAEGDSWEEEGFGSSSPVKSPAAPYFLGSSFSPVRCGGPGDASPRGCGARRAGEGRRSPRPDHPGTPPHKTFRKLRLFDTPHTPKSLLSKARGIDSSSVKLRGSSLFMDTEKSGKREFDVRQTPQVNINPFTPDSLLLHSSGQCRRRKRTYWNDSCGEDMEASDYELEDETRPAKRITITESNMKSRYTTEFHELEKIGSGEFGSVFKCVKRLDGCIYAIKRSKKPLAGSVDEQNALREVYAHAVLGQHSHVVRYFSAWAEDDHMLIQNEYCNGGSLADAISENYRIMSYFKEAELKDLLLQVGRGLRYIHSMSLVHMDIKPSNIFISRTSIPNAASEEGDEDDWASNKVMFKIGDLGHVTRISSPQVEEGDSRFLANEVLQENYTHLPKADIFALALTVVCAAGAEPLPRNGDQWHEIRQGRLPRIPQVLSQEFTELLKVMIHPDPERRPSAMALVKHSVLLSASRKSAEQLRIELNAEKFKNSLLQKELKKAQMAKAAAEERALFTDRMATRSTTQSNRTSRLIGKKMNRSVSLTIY

PLK1, sequence (P53350 whole entry, species assumed): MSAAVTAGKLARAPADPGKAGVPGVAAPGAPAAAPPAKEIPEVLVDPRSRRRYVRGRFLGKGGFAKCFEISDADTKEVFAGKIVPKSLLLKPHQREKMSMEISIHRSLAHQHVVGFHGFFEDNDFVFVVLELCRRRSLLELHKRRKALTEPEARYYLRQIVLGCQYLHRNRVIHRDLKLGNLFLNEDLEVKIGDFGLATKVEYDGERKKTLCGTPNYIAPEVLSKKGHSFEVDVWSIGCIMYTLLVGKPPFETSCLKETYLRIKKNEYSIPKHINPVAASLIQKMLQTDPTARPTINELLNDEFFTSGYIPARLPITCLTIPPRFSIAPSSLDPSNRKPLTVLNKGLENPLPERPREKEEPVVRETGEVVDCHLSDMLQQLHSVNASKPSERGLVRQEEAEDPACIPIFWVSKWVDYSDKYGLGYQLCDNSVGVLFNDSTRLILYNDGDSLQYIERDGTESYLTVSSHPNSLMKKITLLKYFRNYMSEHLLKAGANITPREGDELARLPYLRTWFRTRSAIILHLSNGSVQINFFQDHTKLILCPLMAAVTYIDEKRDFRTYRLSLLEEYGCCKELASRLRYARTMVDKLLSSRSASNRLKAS

On to `CN1CCc2cc(Nc3ncc(C#N)c(Nc4cccc(N5CCOC5=O)n4)n3)cc(Cl)c2C1` [Example 13, 2-[(8-chloro-2-methyl-3,4-dihydro-1H-isoquinolin-6-yl)amino]-4-[[6-(2-oxooxazolidin-3-yl)-2-pyridyl]amino]pyrimidine-5-carbonitrile], for which the IC50 against PLK1 was above 1000 nM; at Wee1, at most 100 nM.

Take `CCC1(O)CCc2ccc(Nc3nc(Nc4ccc(N5CCN(C)CC5)nc4)ncc3C#N)nc21` (centres unmarked) [Example 14, 4-[(7-ethyl-7-hydroxy-5,6-dihydrocyclopenta[b]pyridin-2-yl)amino]-2-[[6-(4-methylpiperazin-1-yl)-3-pyridyl]amino]pyrimidine-5-carbonitrile]: the IC50 is at most 100 nM on PLK1 and above 1000 nM against Wee1.

In the case of `CCC1(O)CCc2ccc(Nc3nc(Nc4ccc(N5CCN(C)CC5)cc4)ncc3C#N)nc21` (centres unmarked) [Example 15, 4-[(7-ethyl-7-hydroxy-5,6-dihydrocyclopenta[b]pyridin-2-yl)amino]-2-[4-(4-methylpiperazin-1-yl)anilino]pyrimidine-5-carbonitrile], the IC50 is at most 100 nM against PLK1 and 250 to 500 nM against Wee1.

Take `CCC1(O)CCc2ccc(Nc3nc(Nc4ccc(N5CCN(C)CC5)c(C)c4)ncc3C#N)nc21` (centres unmarked) [Example 16, 4-[(7-ethyl-7-hydroxy-5,6-dihydrocyclopenta[b]pyridin-2-yl)amino]-2-[3-methyl-4-(4-methylpiperazin-1-yl)anilino]pyrimidine-5-carbonitrile]: the IC50 is at most 100 nM against PLK1 and 100 to 250 nM against Wee1.

Take `CCC1(O)CCc2ccc(Nc3nc(Nc4ccc(N5CCNCC5)c(C)c4)ncc3C#N)nc21` (centres unmarked) [Example 17, 4-[(7-ethyl-7-hydroxy-5,6-dihydrocyclopenta[b]pyridin-2-yl)amino]-2-(3-methyl-4-piperazin-1-yl-anilino)pyrimidine-5-carbonitrile]: the IC50 on PLK1 and against Wee1 was at most 100 nM each time.

In the case of `CCC1(O)CCc2ccc(Nc3nc(Nc4ccc(C5CCNCC5)c(C)c4)ncc3C#N)nc21` (centres unmarked) [Example 18, 4-[(7-ethyl-7-hydroxy-5,6-dihydrocyclopenta[b]pyridin-2-yl)amino]-2-[3-methyl-4-(4-piperidyl)anilino]pyrimidine-5-carbonitrile], the IC50 against PLK1 was at most 100 nM; against Wee1, 250 to 500 nM.

With `CCC1(O)CCc2ccc(Nc3nc(Nc4ccc(C5CCN(CCO)CC5)c(C)c4)ncc3C#N)nc21` (centres unmarked) [Example 19, 4-[(7-ethyl-7-hydroxy-5,6-dihydrocyclopenta[b]pyridin-2-yl)amino]-2-[4-[1-(2-hydroxyethyl)-4-piperidyl]-3-methyl-anilino]pyrimidine-5-carbonitrile], the IC50 was at most 100 nM against PLK1 and 250 to 500 nM against Wee1.

On to `CCC1(O)CCc2ccc(Nc3nc(Nc4ccc(C5CCN(C)CC5)c(C)c4)ncc3C#N)nc21` (centres unmarked) [Example 20, 4-[(7-ethyl-7-hydroxy-5,6-dihydrocyclopenta[b]pyridin-2-yl)amino]-2-[3-methyl-4-(1-methyl-4-piperidyl)anilino]pyrimidine-5-carbonitrile], for which the 50% inhibitory concentration (IC50) against PLK1 is 100 to 250 nM; against Wee1, at most 100 nM.

Turning to `CCC1(O)CCc2ccc(Nc3nc(Nc4ccc(N5CCN(C6CC6)CC5)cc4)ncc3C#N)nc21` (centres unmarked) [Example 23, 2-[4-(4-cyclopropylpiperazin-1-yl)anilino]-4-[(7-ethyl-7-hydroxy-5,6-dihydrocyclopenta[b]pyridin-2-yl)amino]pyrimidine-5-carbonitrile], the IC50 against PLK1 was at most 100 nM; at Wee1, 500 to 1000 nM.

On to `CCC1(O)CCc2ccc(Nc3nc(Nc4ccc(N5CC6CCC5CN6C)cc4)ncc3C#N)nc21` (centres unmarked) [Example 24, 4-[(7-ethyl-7-hydroxy-5,6-dihydrocyclopenta[b]pyridin-2-yl)amino]-2-[4-(5-methyl-2,5-diazabicyclo[2.2.2]octan-2-yl)anilino]pyrimidine-5-carbonitrile], for which the IC50 against PLK1 and against Wee1 was at most 100 nM each time.

As a reminder, the IC50 is the concentration at which inhibition is half-maximal. A higher IC50 goes with lower potency.
